Experiments:
Assay in all cases: relative viability (nuclei count vs DMSO), 5 days (fraction); higher = more cells survive
XMD13-2 + Phenformin = compound: C1CC1C(=O)NC2=NNC3=C2C=CC(=C3)C4=CC(=CC=C4)C(=O)NC5CC5 [XMD13-2] + N=C(N)NC(=N)NCCc1ccccc1 [Phenformin] (partner 250 µM)
Procedure, shortened: (§1)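 The day after seeding in 1536-well plates, lung cancer cell lines were treated by pin tool with a single drug, or with a fixed anchor-drug dose together with five library-drug doses (not always all listed) in √10 steps. After 5 days, a combined fix-and-stain solution (final 0.05% Triton X-100, 1% formaldehyde, 1 ug/ml Hoechst) was added. Nuclei counted on 4× images gave relative viability as treated counts over vehicle counts, reported as the median of duplicate plates.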

XMD13-2 + Trametinib = compound: C1CC1C(=O)NC2=NNC3=C2C=CC(=C3)C4=CC(=CC=C4)C(=O)NC5CC5 [XMD13-2] + CC(=O)Nc1cccc(-n2c(=O)n(C3CC3)c(=O)c3c(Nc4ccc(I)cc4F)n(C)c(=O)c(C)c32)c1 [Trametinib] (partner 0.02 µM)
Procedure, shortened: as §1

XMD13-2 + Palbociclib = compound: C1CC1C(=O)NC2=NNC3=C2C=CC(=C3)C4=CC(=CC=C4)C(=O)NC5CC5 [XMD13-2] + CC(=O)c1c(C)c2cnc(Nc3ccc(N4CCNCC4)cn3)nc2n(C2CCCC2)c1=O [Palbociclib] (partner 0.5 µM)
Procedure, shortened: as §1

XMD13-2 + Pemetrexed = compound: C1CC1C(=O)NC2=NNC3=C2C=CC(=C3)C4=CC(=CC=C4)C(=O)NC5CC5 [XMD13-2] + Nc1nc2[nH]cc(CCc3ccc(C(=O)N[C@@H](CCC(=O)O)C(=O)O)cc3)c2c(=O)[nH]1 [Pemetrexed] (partner 0.2 µM)
Procedure, shortened: as §1

Cell Line	relative viability (XMD13-2 + Phenformin; first compound 0.05 µM)	relative viability (XMD13-2 + Phenformin; first compound 0.1581 µM)	relative viability (XMD13-2 + Phenformin; first compound 0.5 µM)	relative viability (XMD13-2 + Phenformin; first compound 1.581 µM)	relative viability (XMD13-2 + Phenformin; first compound 5 µM)	relative viability (XMD13-2 + Trametinib; first compound 0.05 µM)	relative viability (XMD13-2 + Trametinib; first compound 0.1581 µM)	relative viability (XMD13-2 + Trametinib; first compound 0.5 µM)	relative viability (XMD13-2 + Trametinib; first compound 1.581 µM)	relative viability (XMD13-2 + Trametinib; first compound 5 µM)	relative viability (XMD13-2 + Palbociclib; first compound 0.05 µM)	relative viability (XMD13-2 + Palbociclib; first compound 0.1581 µM)	relative viability (XMD13-2 + Palbociclib; first compound 0.5 µM)	relative viability (XMD13-2 + Palbociclib; first compound 1.581 µM)	relative viability (XMD13-2 + Palbociclib; first compound 5 µM)	relative viability (XMD13-2 + Pemetrexed; first compound 0.05 µM)	relative viability (XMD13-2 + Pemetrexed; first compound 0.1581 µM)	relative viability (XMD13-2 + Pemetrexed; first compound 0.5 µM)	relative viability (XMD13-2 + Pemetrexed; first compound 1.581 µM)	relative viability (XMD13-2 + Pemetrexed; first compound 5 µM)
NCI-H1623	0.52	0.564	0.582	0.554	0.61	–	–	–	–	–	–	–	–	–	–	–	–	–	–	–
HCC-827	0.443	0.366	0.405	0.478	0.392	0.611	0.502	0.528	0.49	0.473	0.512	0.462	0.439	0.459	0.377	0.264	0.27	0.211	0.272	0.261
NCI-H322M	0.858	0.84	0.774	0.782	0.905	0.396	0.51	0.446	–	0.565	0.494	0.491	0.498	–	0.49	0.659	0.614	0.579	–	0.608
ChaGo-K-1	0.549	0.416	0.507	0.489	0.474	0.937	0.89	0.959	0.847	0.835	0.923	0.897	0.958	0.92	0.795	0.255	0.267	0.259	0.253	0.264
BEN	0.28	0.263	0.254	0.26	0.311	1.11	1	1.21	0.991	1.07	0.462	0.508	0.492	0.489	0.468	0.876	0.858	0.734	0.641	0.803
NCI-H2347	0.615	0.507	0.404	0.26	0.51	0.294	0.268	0.211	0.291	0.265	0.471	0.424	0.465	0.382	0.471	0.458	0.443	0.446	0.453	0.45
LOU-NH91	0.83	0.663	0.732	0.582	0.867	0.802	0.726	0.793	0.729	0.85	0.541	0.554	0.561	0.475	0.507	0.319	0.409	0.392	0.435	0.371
NCI-H2228	0.346	0.37	0.295	0.313	0.362	0.672	0.577	0.517	0.602	0.634	1.03	0.779	0.724	0.709	0.818	0.354	0.315	0.339	0.31	0.27
NCI-H2342	0.567	0.602	0.597	0.642	0.651	0.766	0.917	0.697	0.912	0.822	0.517	0.522	0.546	0.488	0.502	0.806	0.711	0.772	0.72	0.775
HCC-366	0.705	0.577	0.633	0.569	0.611	0.413	0.334	0.412	0.286	0.331	0.466	0.362	0.473	0.407	0.403	0.147	0.175	0.164	0.172	0.187
NCI-H2405	0.436	0.417	0.411	0.397	0.438	0.73	0.656	0.628	–	0.65	0.545	0.529	0.474	–	0.518	1.18	1.02	1.11	–	1.07
201T	0.462	0.45	0.397	0.467	0.464	0.712	0.748	0.736	0.703	0.783	0.356	0.377	0.539	0.357	0.34	0.372	0.309	0.384	0.329	0.364
CAL-12T	0.575	0.538	0.61	0.538	0.665	0.465	0.399	0.332	0.317	0.307	0.567	0.418	0.478	0.504	0.371	1.27	1.1	1.25	1.11	1.23
HCC-44	0.217	0.161	0.213	0.269	0.183	1.2	1.04	1.17	1.05	1.05	0.978	0.912	0.959	0.944	0.96	0.573	0.536	0.67	0.727	0.631
NCI-H358	0.358	0.323	0.336	0.351	0.304	0.128	0.127	0.132	0.13	0.135	0.139	0.121	0.133	0.117	0.129	0.171	0.168	0.175	0.179	0.166
SW 900	0.696	0.621	0.682	0.49	0.781	0.924	0.943	0.993	0.859	0.881	0.592	0.382	0.669	0.549	0.589	0.485	0.502	0.508	0.493	0.529
NCI-H2087	0.479	0.487	0.515	0.498	0.362	0.194	0.196	0.198	0.198	0.23	0.248	0.261	0.184	0.184	0.258	0.635	0.661	0.624	0.67	0.583
